Assay results reported in patent publication US20020131996A1, “Methods and compositions for blocking microbial adherence to eukaryotic cells” (priority 2001, published 2002).

Key:
Type in all cases: in vivo, human
[1] = test system: bacteria adherent to gingival epithelial cells; assay: Microbial adherence to gingival epithelial cells in volunteers with low grade gingivitis (Giemsa-stained gingival scrapings)
Text: In this example isoleucine was applied as a pure crystalline powder directly to the gums. The individuals were normal human volunteers. Each individual had clinically evident low grade gingivitis, as determined by the puffiness of the gingival margin and a history of some bleeding during normal dental brushing. Oral health care comprised twice daily flossing and dental brushing with a non-medicated toothpaste. No oral antiseptic was used. The individuals were not taking antibiotics. Isoleucine was applied by application of powder on the fingertip to the outer and inner gum margins of the upper and lower jaws. The entirety of the gingival surface was covered manually, twice daily. The AM application was performed following breakfast, immediately after brushing. The PM application was conducted prior to retiring for sleep.
Gingival surface was gently scrapped with the side of a rectangular glass cover slip and the material described was applied to a glass microscope slide and air-dried. The slide was stained in concentrated Giemsa stain for 1 min, then destained in water for 5 min. The slide was then air-dried and mounted with a cover slip cemented with Permount. Slides were examined by light microscopy at 100×and 400×magnification. Under these staining conditions bacteria were clearly visualized as dark blue particles against the pale gray epithelial cells.
Gingival scrapings were taken in the morning prior to normal oral care and prior to eating. Prior to scraping, the subject rinsed the mouth with a cup of water to wash free particulate matter, unattached cells, and bacteria.
Scrapings were taken 3 days and 1 day prior to isoleucine administration and 1, 3, 5, and 7 days during isoleucine application. […] The bacteria adherent were represented by several different species, distinguished by morphology. […] At least 200 bacteria were counted on the average on each cell.

[2] = test system: bacterial vaginosis; assay: Amelioration of bacterial vaginosis with isoleucine powder applied in the vagina
Description: In this example isoleucine was administered locally to the vagina to treat the symptoms of bacterial vaginosis. By inhibiting the adherence of bacteria to the wall of the vagina, microbial growth, inflammation, and associated signs of malodorous discharge and symptoms such as pruritis can be treated. A person, with a normal menstrual cycle and in excellent health, experienced vaginal irritation and malodorous discharge associated with their cycle, generally beginning several days prior to the onset of their period. Isoleucine was self-administered as a powder locally within the vaginal cavity digitally, twice a day. Within 2 days symptoms of vaginosis disappeared. Isoleucine therapy was continued for several days following termination of menstrual discharge, and then stopped. […] Isoleucine was again administered during the following months, cycled as described initially.

[3] = test system: irritable bowel syndrome (IBS); assay: Amelioration of irritable bowel syndrome with isoleucine in yogurt
Description: In this example isoleucine was administered to individuals who experienced irritable bowel syndrome (IBS). IBS is a loosely defined condition associated with bowel discomfort including abdominal bloating, nausea, pain, and a sense of incomplete bowel movements. The etiology underlying IBS is unknown. It is our hypothesis that IBS results from adherence of certain “pathogenic” commensal organisms to the epithelial lining of certain segments of the GI tract, resulting in disturbance of normal host-bacteria relationships. […] Two women, each in their mid-50's, presented with a history of IBS of over 20 years, in each case. In each, IBS was characterized by a sense of bloating experienced after eating cooked or raw vegetables, fruits, and meat. Each individual experienced urgency to move her bowels several times a day to an extent that often awakened the individuals from sleep. Bloating was accompanied by abdominal discomfort, described as mild cramps. Individuals felt “gassy” most of the day. Each individual was given isoleucine, 1 tsp, twice a day, each dose mixed in ½cup of yogurt. The yogurt was included to promote reinoculation of the GI tract with probiotic “good” bacteria. In each case, it was known from previous experience that yogurt itself had little effect on the IBS experienced by these individuals. Within 2 days of isoleucine administration, bloating, urgency to defecate, and gassiness had disappeared. Both individuals described the state of their bowel function as “normal”, for the first time in 20 years. […] Each was then withdrawn from isoleucine, and provided yogurt unsupplemented with isoleucine. Within about 2 days both women recorded a reappearance of the former symptoms of IBS.

[4] = test system: infectious diarrhea (diarrheal agent not known); assay: Treatment of infectious diarrhea with oral isoleucine solution
Description: In this example isoleucine was administered to treat infectious diarrhea. In this example three individuals were naturally innoculated by a common agent. The nature of the diarrheal agent is not known. The duration of diarrhea was consistent with an infectious etiology. Isoleucine was utilized based on the hypothesis that reduction in microbial adherence would likely limit the continued re-infection of the gut wall by the agent, and/or prevent attachment of opportunistic commensal organisms.
Three members of a family traveling in the Middle East (MZ, BZ, JZ) contracted watery diarrhea, associated with food intolerance, following a meal they shared at a restaurant. Each individual had been in excellent health without prior history of GI complaints. All were unmedicated, including aspirin or antihistamines. […] Diarrhea was watery, without gross blood, minimal mucous, slight fever with chills, no nausea, and persistence of hunger. Peristalsis was vigorous and increased by ingestion of food. Each individual was placed on a diet restricted to clear liquids (juices and soda), digestible carbohydrates (bread, rice, candy). No medications were administered.
Six days after ingestion of the diarrheal agent, one individual was begun on oral isoleucine (ILE) therapy, while the other two continued on restricted diets. ILE (#E-2025 Bachem, lot 511191) was dissolved in distilled water to 0.001%. One glass of ILE solution (about 250 ml) was consumed every several hours. A total of about 4 liters was consumed over {fraction (3 1/2)}days. A reduction in stool frequency was noted within 12 hours of initiation of ILE therapy.

[5] = Day 1 of isoleucine powder applied to gums twice daily
[6] = Day 3 of isoleucine powder applied to gums twice daily
[7] = Day 7 of isoleucine powder applied to gums twice daily

## CC[C@H](C)[C@H](N)C(=O)O [isoleucine]
[1]; Day 1 following initiation of isoleucine application
  Change in number of epithelial cells covered with a dense coat of bacteria: little change
[1]; [5]
  Gingival epithelial cells with 0 Bacteria: 0 % cells
  Gingival epithelial cells with 1-10 Bacteria: 10 % cells
  Gingival epithelial cells with 10-100 Bacteria: 10 % cells
  Gingival epithelial cells with Contiguous lawn of bacteria: 80 % cells
[1]; Day 3
  Adherent bacteria in gingival smears: dramatic reduction
  Microcolonies (contiguous groupings of greater than 4 organisms) on cells: Few
  Neutrophils in gingival smear (sign of inflammation): No neutrophils were evident
  Total adherent bacteria per cell (most cells): < 100
[1]; Day 3, of 100 cells examined
  Cells fully covered with bacteria, of 100 cells examined: 40
[1]; [6]
  Gingival epithelial cells with 0 Bacteria: 15 % cells
  Gingival epithelial cells with 1-10 Bacteria: 15 % cells
  Gingival epithelial cells with 10-100 Bacteria: 30 % cells
  Gingival epithelial cells with Contiguous lawn of bacteria: 40 % cells
[1]; Day 7
  Breath as described by an examiner in the AM prior to oral hygiene: free of odor
[1]; [7]
  Gingival epithelial cells with 0 Bacteria: 80 % cells
  Gingival epithelial cells with 1-10 Bacteria: 15 % cells
  Gingival epithelial cells with 10-100 Bacteria: 0 % cells
  Gingival epithelial cells with Contiguous lawn of bacteria (fully covered): 5 % cells
[2]; after cessation
  Symptoms following cessation of isoleucine administration: remained symptom free
[2]; cycled administration during following months
  Outcome of chronic vaginosis based on symptoms and signs: effectively cured
[2]; one person, powder in the vaginal cavity twice a day
  Time to disappearance of symptoms of vaginosis: ≤ 2 days
[3]; maintained for 1 month
  Response during maintenance on isoleucine: consistent response
[3]; two women on isoleucine in yogurt
  State of bowel function as described by the individuals: normal
[3]; two women, isoleucine 1 tsp twice a day in 1/2 cup yogurt
  Time to disappearance of bloating, urgency to defecate, and gassiness: ≤ 2 days
[3]; yogurt unsupplemented with isoleucine
  Time to reappearance of former IBS symptoms after withdrawal from isoleucine: about 2 days
[4]; MZ versus two untreated family members (BZ, JZ)
  Shortening of the duration of diarrhea: approximately three
[4]; individual, 3rd day
  Stools passed on the 3rd day of ILE therapy: no stools were passed
[4]; individual, by the 3rd day
  Food tolerance: cheese and chicken tolerated
[4]; individual, day 4
  Stool by day 4 following ILE treatment: a normal stool was passed
[4]; one individual, 0.001% ILE in distilled water, oral, begun six days after ingestion of agent
  Time to reduction in stool frequency after initiation of ILE therapy: ≤ 12 h
